Reference: patent US20220144823A1, “PYRAZOLOPYRIDINE DERIVATIVES AS INHIBITORS OF PASK” (Galapagos NV, priority 2019, published 2022)

Molecular target: T1, autophosphorylation of PASK at position Thr307 in Hek293 cells overexpressing PASK (Homo sapiens, UniProt Q96RG2)
T1 construct: expressed in transfected cells; host or cells: Hek293
Experiment: PASK autophosphorylation ELISA assay
Type: cell-based
Conditions: 24 h, ELISA readout
Summary of the method: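 Hek293 cells transiently transfected with full-length wild-type PASK-FLAG, treated 24 h in serum-free DMEM with an 8-point 1/3 dilution series from 30 μM final (0.3% DMSO). Lysates captured on anti-FLAG ELISA plates, Thr307 phosphorylation detected with phospho-Akt substrate (RXXS*/T*) antibody and HRP chemiluminescence; IC50 from percentage inhibition curves.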

T1 sequence (Q96RG2 with tags, fused parts or gaps): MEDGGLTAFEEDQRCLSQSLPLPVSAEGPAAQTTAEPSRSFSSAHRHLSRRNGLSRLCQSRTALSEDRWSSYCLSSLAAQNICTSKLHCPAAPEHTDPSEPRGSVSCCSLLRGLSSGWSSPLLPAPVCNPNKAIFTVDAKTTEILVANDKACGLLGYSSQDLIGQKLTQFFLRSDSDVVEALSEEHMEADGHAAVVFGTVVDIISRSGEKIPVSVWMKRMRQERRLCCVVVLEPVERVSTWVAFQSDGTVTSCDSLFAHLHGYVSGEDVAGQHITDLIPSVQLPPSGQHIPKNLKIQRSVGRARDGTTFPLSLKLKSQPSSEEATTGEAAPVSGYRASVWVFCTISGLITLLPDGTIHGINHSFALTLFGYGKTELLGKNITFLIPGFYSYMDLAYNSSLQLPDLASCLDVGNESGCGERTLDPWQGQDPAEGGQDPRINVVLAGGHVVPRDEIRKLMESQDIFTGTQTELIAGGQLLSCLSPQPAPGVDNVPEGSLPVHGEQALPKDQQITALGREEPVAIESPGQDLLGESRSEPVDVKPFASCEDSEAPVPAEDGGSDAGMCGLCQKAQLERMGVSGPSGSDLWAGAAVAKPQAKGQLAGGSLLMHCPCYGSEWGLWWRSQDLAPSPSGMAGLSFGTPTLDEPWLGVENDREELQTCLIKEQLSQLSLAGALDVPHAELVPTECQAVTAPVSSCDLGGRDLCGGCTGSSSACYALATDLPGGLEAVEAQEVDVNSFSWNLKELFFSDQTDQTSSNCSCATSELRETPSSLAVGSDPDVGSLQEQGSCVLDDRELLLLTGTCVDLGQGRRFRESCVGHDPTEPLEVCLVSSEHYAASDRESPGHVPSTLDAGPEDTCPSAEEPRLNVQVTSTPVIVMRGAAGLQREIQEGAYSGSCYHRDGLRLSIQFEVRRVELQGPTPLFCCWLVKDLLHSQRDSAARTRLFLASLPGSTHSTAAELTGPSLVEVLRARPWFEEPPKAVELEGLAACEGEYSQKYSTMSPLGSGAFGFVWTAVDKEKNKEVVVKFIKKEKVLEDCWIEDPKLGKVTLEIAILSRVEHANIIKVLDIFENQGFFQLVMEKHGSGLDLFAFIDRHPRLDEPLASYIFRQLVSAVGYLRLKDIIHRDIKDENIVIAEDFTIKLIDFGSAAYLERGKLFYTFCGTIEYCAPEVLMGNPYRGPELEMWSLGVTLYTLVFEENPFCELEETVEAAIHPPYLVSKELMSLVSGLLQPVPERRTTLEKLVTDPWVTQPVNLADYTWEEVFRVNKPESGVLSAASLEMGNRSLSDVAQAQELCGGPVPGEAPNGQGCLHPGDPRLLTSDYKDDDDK

IC50: 0.5 to 1 µM
SMILES: Cc1nn(C(C)C)c(C)c1-c1cnn2ccc(-c3cc(C(=O)O)co3)cc12 [Cpd 18, 5-[3-(1-isopropyl-3,5-dimethyl-pyrazol-4-yl)pyrazolo[1,5-a]pyridin-5-yl]furan-3-carboxylic acid]
